Like-named read-outs stand apart in the source and are kept apart here.
Assay: Plasma stability (37° C., pH 7.4), rat
Format: in vitro ADME, Sprague-Dawley rat
Conditions: for half-life at 1 μM: male, Sprague-Dawley, rat, plasma; for % Remaining of Initial (n = 1), 0 min / % Remaining of Initial (n = 1), 15 min / % Remaining of Initial (n = 1), 30 min / % Remaining of Initial (n = 1), 60 min / % Remaining of Initial (n = 1), 120 min / % Remaining of Initial: rat plasma; for % Remaining of Initial (n = 1), 0 min: pH 7.4, 0 min; for % Remaining of Initial (n = 1), 15 min: pH 7.4, 15 min; for % Remaining of Initial (n = 1), 30 min: pH 7.4, 30 min; for % Remaining of Initial (n = 1), 60 min: pH 7.4, 60 min; for % Remaining of Initial (n = 1), 120 min: pH 7.4, 120 min; for % Remaining of Initial: n = 1; for % Remaining of Initial (n = 1): Rat plasma
Procedure: (§1) Studies were carried out in mixed-gender human plasma (Lot #GLP530-5), male Sprague-Dawley rat (Lot #RAT297944, RAT313140), male CD-1 mouse (Lot #MSE237700), and male Beagle dog (Lot #BGL87670, BGL82614), collected on sodium heparin. Plasma was adjusted to pH 7.4 prior to initiating the experiments. DMSO stocks were first prepared for the test articles. Aliquots of the DMSO solutions were dosed into 700 μL of plasma, which had been pre-warmed to 37° C., at a final test article concentration of 1 μM. […] Samples were stored at 4° C. until the end of the experiment. After the final time point was sampled, the plate was mixed and then centrifuged at 3,000 rpm for 10 minutes. Calibration standards were prepared in matched matrix. […] Analytical conditions are outlined in Appendix 8-1.
as §1, with “#AS1650-2),” for “#GLP530-5),”, “#RAT297944),” for “#RAT297944, RAT313140),”, “CD-I” for “CD-1”, “#BGL91384),” for “#BGL87670, BGL82614),”, “10-1.” for “8-1.”
Studies were carried out in mixed-gender human plasma (Lot #AS1650-2), male Sprague-Dawley rat (Lot #RAT297944), male CD-1 mouse (Lot #MSE237700), and male Beagle dog (Lot #BGL91384), collected on sodium heparin. Plasma was adjusted to pH 7.4 prior to initiating the experiments. DMSO stocks were first prepared for test articles. […] Samples were stored at 4° C. until the end of experiment. After the final time point was sampled, the plate was mixed and then centrifuged at 3,000 rpm for 10 minutes. Calibration standards were prepared in matched matrix. […] Analytical conditions are outlined in Appendix 13-1.
Studies were carried out in mixed-gender human plasma (Lot #AS 1650-2), male Sprague-Dawley rat (Lot #RAT320835), male CD-1 mouse (Lot #MSE260693), and 6 male Beagle dog (Lot #BGL91384), on sodium heparin. Plasma was adjusted to pH 7.4 prior to initiating the experiments. DMSO stocks were first prepared for the test articles. Aliquots of the DMSO solutions were dosed into 700 μL of plasma, which had been pre-warmed to 37° C., at a final test article concentration of 1 μM. […] Samples were stored at 4° C. until the end of the experiment. After the final time point was sampled, the plate was mixed and then centrifuged at 3,000 rpm for 10 minutes. Calibration standards were prepared in matched matrix. […] Analytical conditions are outlined in Appendix 17-1.

[1] = pH 7.4, rat plasma, test article 1 μM, 37° C., pH 7.4, read-out: Half-life
[2] = pH 7.4, rat plasma, read-out: Half-life

**Q.** With `CCCCCCCCCCCCCCCC(=O)NCCOC(=O)CCC` [Compound I-2] as the compound, how does the half-life at 1 μM [1] read?
**A.** 49 min

**Q.** And the “% Remaining of Initial (n = 1), 0 min” value (test article 1 μM, 37° C.)?
**A.** 100%

**Q.** And the “% Remaining of Initial (n = 1), 15 min” value (test article 1 μM, 37° C.)?
**A.** 58%

**Q.** And the “% Remaining of Initial (n = 1), 30 min” value (test article 1 μM, 37° C.)?
**A.** 59%

**Q.** What about the “% Remaining of Initial (n = 1), 60 min” value (test article 1 μM, 37° C.) of the same compound?
**A.** 46%

**Q.** And the “% Remaining of Initial (n = 1), 120 min” value (test article 1 μM, 37° C.)?
**A.** 18%

**Q.** Which half-life at 1 μM [1] does the source give for `CCCCCCCCCCCCCCCC(=O)NCCOC(=O)CCC(=O)OCC(COC(=O)CCCCCCC)OC(=O)CCCCCCC` (stereo not shown) [Compound I-3, PEA-Succinate-Glycerol-Di-Caprylic] here?
**A.** > 120 min

**Q.** And the “% Remaining of Initial (n = 1), 0 min” value (test article 1 μM, 37° C.)?
**A.** 100%

**Q.** What about the “% Remaining of Initial (n = 1), 15 min” value (test article 1 μM, 37° C.) of the same compound?
**A.** 94%

**Q.** And the “% Remaining of Initial (n = 1), 30 min” value (test article 1 μM, 37° C.)?
**A.** 79%

**Q.** What about the “% Remaining of Initial (n = 1), 60 min” value (test article 1 μM, 37° C.) of the same compound?
**A.** 76%

**Q.** What about the “% Remaining of Initial (n = 1), 120 min” value (test article 1 μM, 37° C.) of the same compound?
**A.** 79%

**Q.** With `CC/C=C\C/C=C\C/C=C\C/C=C\C/C=C\CCCC(=O)OCCNC(=O)CCCCCCCCCCCCCCC` [Compound I-5] as the compound, how does the half-life at 1 μM [1] read?
**A.** > 120 min

**Q.** And the “% Remaining of Initial (n = 1), 0 min” value (test article 1 μM, 37° C.)?
**A.** 100%

**Q.** What about the “% Remaining of Initial (n = 1), 15 min” value (test article 1 μM, 37° C.) of the same compound?
**A.** 85%

**Q.** What about the “% Remaining of Initial (n = 1), 30 min” value (test article 1 μM, 37° C.) of the same compound?
**A.** 90%

**Q.** What about the “% Remaining of Initial (n = 1), 60 min” value (test article 1 μM, 37° C.) of the same compound?
**A.** 87%

**Q.** And the “% Remaining of Initial (n = 1), 120 min” value (test article 1 μM, 37° C.)?
**A.** 83%

**Q.** For `CCCCC/C=C\C/C=C\CCCCCCCC(=O)OCCNC(=O)CCCCCCCCCCCCCCC` [Compound I-6], which half-life at 1 μM [1] is on record?
**A.** 110 min

**Q.** What about the “% Remaining of Initial (n = 1), 0 min” value (test article 1 μM, 37° C.) of the same compound?
**A.** 100%

**Q.** And the “% Remaining of Initial (n = 1), 15 min” value (test article 1 μM, 37° C.)?
**A.** 93%

**Q.** And the “% Remaining of Initial (n = 1), 30 min” value (test article 1 μM, 37° C.)?
**A.** 119%

**Q.** And the “% Remaining of Initial (n = 1), 60 min” value (test article 1 μM, 37° C.)?
**A.** 100%

**Q.** What about the “% Remaining of Initial (n = 1), 120 min” value (test article 1 μM, 37° C.) of the same compound?
**A.** 29%

**Q.** Which half-life at 1 μM [1] does the source give for `CCCCCCCCCCCCCCCC(=O)NCCOC(=O)CCC(=O)OC[C@H]1O[C@@](CO)(O[C@H]2O[C@H](CO)[C@@H](O)[C@H](O)[C@H]2O)[C@@H](O)[C@@H]1O` [Compound I-7] here?
**A.** < 1 min

**Q.** And the “% Remaining of Initial (n = 1), 0 min” value (test article 1 μM, 37° C.)?
**A.** 100%

**Q.** And the “% Remaining of Initial (n = 1), 15 min” value (test article 1 μM, 37° C.)?
**A.** <1.0%

**Q.** What about the “% Remaining of Initial (n = 1), 30 min” value (test article 1 μM, 37° C.) of the same compound?
**A.** <1.0%

**Q.** And the “% Remaining of Initial (n = 1), 60 min” value (test article 1 μM, 37° C.)?
**A.** <1.0%

**Q.** What about the “% Remaining of Initial (n = 1), 120 min” value (test article 1 μM, 37° C.) of the same compound?
**A.** <1.0%

**Q.** Which results are given for `CCCCCCCCCCCCCCCC(=O)NCCOC(=O)CCC(=O)OC(CO)CO` [Compound I-8]?
**A.** half-life at 1 μM [2]: < 1 min; % Remaining of Initial (0 min, 1 μM): 100%; % Remaining of Initial (15 min, 1 μM): <1.0%; % Remaining of Initial (30 min, 1 μM): <1.0%; % Remaining of Initial (60 min, 1 μM): <1.0%; % Remaining of Initial (120 min, 1 μM): <1.0%

**Q.** For `CCCCCCCCCCCCCCCC(=O)NCCOC(=O)CCC(=O)OCC(O)CO` (stereo not shown) [Compound I-9], which half-life at 1 μM [1] is on record?
**A.** 2.8 min

**Q.** And the “% Remaining of Initial (n = 1), 0 min” value (test article 1 μM, 37° C.)?
**A.** 100%

**Q.** And the “% Remaining of Initial (n = 1), 15 min” value (test article 1 μM, 37° C.)?
**A.** 2.5%

**Q.** What about the “% Remaining of Initial (n = 1), 30 min” value (test article 1 μM, 37° C.) of the same compound?
**A.** <1.0%

**Q.** What about the “% Remaining of Initial (n = 1), 60 min” value (test article 1 μM, 37° C.) of the same compound?
**A.** <1.0%

**Q.** And the “% Remaining of Initial (n = 1), 120 min” value (test article 1 μM, 37° C.)?
**A.** <1.0%

**Q.** Which half-life at 1 μM [1] does the source give for `CCCCCCCCCCCCCCCC(=O)NCCOC(=O)CCC(=O)OCC(COC(=O)CCC)OC(=O)CCC` (stereo not shown) [Compound I-11] here?
**A.** 5.6 min

**Q.** What about the “% Remaining of Initial (n = 1), 0 min” value (test article 1 μM, 37° C.) of the same compound?
**A.** 100%

**Q.** And the “% Remaining of Initial (n = 1), 15 min” value (test article 1 μM, 37° C.)?
**A.** 9.0%

**Q.** And the “% Remaining of Initial (n = 1), 30 min” value (test article 1 μM, 37° C.)?
**A.** 23%

**Q.** What about the “% Remaining of Initial (n = 1), 60 min” value (test article 1 μM, 37° C.) of the same compound?
**A.** <1.0%

**Q.** What about the “% Remaining of Initial (n = 1), 120 min” value (test article 1 μM, 37° C.) of the same compound?
**A.** <1.0%

**Q.** With `CCCCC/C=C\C/C=C\CCCCCCCC(=O)OCC(COC(=O)CCC(=O)OCCNC(=O)CCCCCCCCCCCCCCC)OC(=O)CCCCCCC/C=C\C/C=C\CCCCC` (stereo not shown) [Compound I-13] as the compound, how does the “% Remaining of Initial (n = 1)” value (0 min, 1 μM) read?
**A.** 100%

**Q.** And the “% Remaining of Initial (n = 1)” value (15 min, 1 μM)?
**A.** 69%

**Q.** And the “% Remaining of Initial (n = 1)” value (30 min, 1 μM)?
**A.** 76%

**Q.** And the “% Remaining of Initial (n = 1)” value (60 min, 1 μM)?
**A.** 36%

**Q.** What about the “% Remaining of Initial (n = 1)” value (120 min, 1 μM) of the same compound?
**A.** 5.1%

**Q.** And the half-life at 1 μM (pH 7.4, Rat plasma, 1 μM, read-out: Half-life)?
**A.** 42 min

**Q.** With `CCCCCCCCCCCCCCCC(=O)NCCOC(=O)CCC(=O)OC(COC(=O)CCC)COC(=O)CCC` [Compound I-16] as the compound, how does the half-life at 1 μM [2] read?
**A.** < 15 min

**Q.** And the half-life at 1 μM (pH 7.4, rat plasma, read-out: Half-life, calculated value in parentheses)?
**A.** 6.9 min

**Q.** And the “% Remaining of Initial” value (0 min, 1 μM)?
**A.** 100%

**Q.** And the “% Remaining of Initial” value (15 min, 1 μM)?
**A.** 20%

**Q.** And the “% Remaining of Initial” value (30 min, 1 μM)?
**A.** 9.3%

**Q.** What about the “% Remaining of Initial” value (60 min, 1 μM) of the same compound?
**A.** 4.1%

**Q.** And the “% Remaining of Initial” value (120 min, 1 μM)?
**A.** 1.6%
